From patent US7323496B2, “Compounds for treatment of inflammation, diabetes and related disorders” (Theracos, Inc., priority 1999, dated 2008)

Legend:
[1] = tested on: IL-6; test: Inhibition of LPS-induced IL-6 production in RAW264.7 cells (ELISA); format: cell-based, mouse; details: RAW264.7, 10, 30 or 100 μM, LPS 0.1 μg/ml 6 hours; greater than dexamethasone 1 μM, FIG. 7
[2] = tested on: COX-1; test: COX-1 production in LPS-stimulated RAW264.7 cells (Western blot); format: cell-based, mouse; details: LPS-stimulated RAW264.7, 10, 30 or 100 μM, FIG. 8
[3] = tested on: ob/ob mice; test: Lipid-lowering effects in ob/ob mice; format: in vivo, mouse; details: 10 mg/kg daily oral, day 8, versus vehicle, p<0.05
[4] = tested on: TNF-alpha; test: Inhibition of LPS-induced TNF-alpha production in RAW264.7 cells (ELISA); format: cell-based, mouse; details: RAW264.7, 10, 30 or 100 μM, LPS 0.1 μg/ml 6 hours; effect approached dexamethasone 1 μM, FIG. 5
[5] = tested on: ob/ob mice; test: Glucose-lowering effect in ob/ob mice; format: in vivo, mouse; details: 10 mg/kg daily oral, p<0.05
[6] = tested on: COX-2; test: Inhibition of LPS-induced COX-2 production in RAW264.7 cells (Western blot); format: cell-based, mouse; details: LPS-stimulated RAW264.7, 10, 30 or 100 μM, FIG. 8
[7] = tested on: IL-1 beta; test: Inhibition of LPS-induced IL-1 beta production in RAW264.7 cells (ELISA); format: cell-based, mouse; details: RAW264.7, 10, 30 or 100 μM, LPS 0.1 μg/ml 6 hours; same approximate magnitude as dexamethasone 1 μM, FIG. 6
[8] = tested on: iNOS; test: Inhibition of LPS-induced iNOS production in RAW264.7 cells (Western blot); format: cell-based, mouse; details: RAW264.7, 10, 30 or 100 μM, FIG. 8
[9] = tested on: 3T3-L1 adipocytes; test: Insulin-stimulated glucose uptake in 3T3-L1 adipocytes; format: cell-based, mouse; details: 5 μM, 48 hours, different concentrations of insulin, versus vehicle, FIG. 2
[10] = tested on: 3T3-L1 adipocytes; test: Glucose uptake in 3T3-L1 differentiated adipocytes (14C-deoxyglucose); format: cell-based, mouse; details: 48 hours with different concentrations, percentage of basal level, FIG. 1
[11] = tested on: 3T3-L1 adipocytes; test: Stimulation of glucose uptake in differentiated 3T3-L1 adipocytes with 100 nM insulin; format: cell-based; details: Mus musculus, 48 h, vehicle set at 100%, read-out: Percent Stimulation of Glucose Uptake
[12] = tested on: p44/42 MAP kinase; test: Inhibition of LPS-induced phosphorylation of p44/42 MAP kinase in RAW 264.7 gamma NO(-) cells (Western blot); format: cell-based, mouse; details: data not shown
[13] = tested on: PDE4; test: Inhibition of PDE4 enzyme activity; format: biochemical, human; details: for Percent Inhibition of Enzyme Activity, PDE4: PDE4 from human U-937 cells, 1 μM cAMP
[14] = biological target: T1, PDE3 (Homo sapiens, UniProt Q14432); test: Inhibition of PDE3 enzyme activity; format: biochemical; details: PDE3 from human platelets
T1 construct: PDE3 partially purified from human platelets were used; from tissue; host or cells: human platelets
T1 sequence (Q14432 whole entry): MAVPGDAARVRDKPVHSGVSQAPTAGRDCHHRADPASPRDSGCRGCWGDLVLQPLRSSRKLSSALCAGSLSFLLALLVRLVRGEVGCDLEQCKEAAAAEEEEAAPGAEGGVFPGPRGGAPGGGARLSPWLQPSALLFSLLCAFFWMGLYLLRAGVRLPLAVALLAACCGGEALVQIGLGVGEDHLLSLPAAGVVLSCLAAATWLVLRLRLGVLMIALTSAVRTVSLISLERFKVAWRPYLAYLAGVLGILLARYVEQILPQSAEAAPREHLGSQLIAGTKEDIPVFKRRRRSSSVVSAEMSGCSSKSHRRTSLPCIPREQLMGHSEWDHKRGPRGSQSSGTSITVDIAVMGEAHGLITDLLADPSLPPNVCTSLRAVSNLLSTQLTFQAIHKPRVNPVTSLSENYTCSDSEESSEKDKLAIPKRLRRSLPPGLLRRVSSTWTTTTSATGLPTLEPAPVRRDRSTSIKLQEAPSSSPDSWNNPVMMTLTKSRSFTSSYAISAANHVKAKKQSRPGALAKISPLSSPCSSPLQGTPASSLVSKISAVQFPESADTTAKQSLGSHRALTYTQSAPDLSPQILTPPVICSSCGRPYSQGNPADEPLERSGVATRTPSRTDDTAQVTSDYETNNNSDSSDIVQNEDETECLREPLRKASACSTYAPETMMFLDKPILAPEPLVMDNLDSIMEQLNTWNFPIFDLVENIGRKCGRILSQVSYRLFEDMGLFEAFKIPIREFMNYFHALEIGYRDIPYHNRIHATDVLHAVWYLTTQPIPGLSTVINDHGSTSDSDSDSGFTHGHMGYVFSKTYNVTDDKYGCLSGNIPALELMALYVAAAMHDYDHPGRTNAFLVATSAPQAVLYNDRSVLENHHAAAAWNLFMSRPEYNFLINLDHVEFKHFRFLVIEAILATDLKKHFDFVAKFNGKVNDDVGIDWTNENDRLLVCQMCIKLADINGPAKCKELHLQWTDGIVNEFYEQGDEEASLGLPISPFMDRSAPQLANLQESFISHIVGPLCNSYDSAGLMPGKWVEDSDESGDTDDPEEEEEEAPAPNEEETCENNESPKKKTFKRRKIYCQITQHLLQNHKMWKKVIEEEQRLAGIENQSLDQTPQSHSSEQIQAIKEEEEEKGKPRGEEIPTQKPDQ

[15] = tested on: TNF-alpha; test: Inhibition of LPS-induced TNF-alpha production in mice (plasma ELISA); format: in vivo, mouse; details: summary in words of Table 6, 50 or 100 mg/kg oral
[16] = tested on: DBA/1J mice; test: Collagen-induced arthritis in mice; format: in vivo, mouse; details: for arthritis clinical score (severity) compared with vehicle controls: FIG. 9
[17] = tested on: human elutriated monocytes; test: Cell viability of human monocytes (MTS/PMS assay); format: cell-based; details: 30 μM
[18] = low dose 40 mg/kg oral twice daily for 14 days

Compound	activity at 0.1 µM [11] [%]	activity at 1 µM [11] [%]	activity at 10 µM [11] [%]	also measured
COC(=O)C(=Cc1cc(OC)cc(OC)c1)c1ccc(Oc2ccc(CCC(=O)NC(N)=O)cc2)cc1 [Compound 1, 3-(3,5-dimethoxyphenyl)-2-{4-[4-(3-oxo-3-ureidopropyl)-phenoxy]-phenyl}-acrylyc acid methyl ester]	–	–	–	inhibition of LPS-induced production of IL-6 [1]: significantly inhibited; inhibition of production of COX-1 [2]: but not COX-1; decrease in free fatty acids [3]: 19%; decrease in serum triglycerides [3]: 49%; inhibition of LPS-induced production of TNF-alpha [4]: significantly inhibited; decrease in blood glucose levels ([5]; day 6, versus vehicle): 36%; decrease in blood glucose levels ([5]; day 8, versus vehicle): 23%; inhibition of production of COX-2 [6]: selectively inhibited; inhibition of LPS-induced production of IL-1 beta [7]: significantly inhibited; inhibition of LPS-induced iNOS production [8]: dose-dependent inhibition; stimulation of glucose uptake by insulin [9]: enhanced; glucose uptake [10]: dose-dependent increase
CCOC(=O)NC(=O)CCc1ccc(Oc2ccc(/C(=C\c3cc(OC)cc(OC)c3)C(=O)OC)cc2)cc1 [Compound 8, 3-(3,5-dimethoxyphenyl)-2-{4-[4-(3-ethoxycarbonylamino-3-oxo-propyl)-phenoxy]-phenyl}-acrylic acid methyl ester]	115	132	171	–
COc1cc(/C=C(/C(=O)N(C)C)c2ccc(Oc3ccc(CCC(=O)NC(N)=O)cc3)cc2)cc(OC)c1 [Compound 13, 3-(3,5-dimethoxyphenyl)-N,N-dimethyl-2-{4-[4-(3-oxo-3-ureido-propyl)-phenoxy]-phenyl}-acrylamide]	–	–	–	inhibition of LPS/IFN-gamma induced phosphorylation of p44/42 ([12]; 30 μM and 10 μM, LPS 10 ng/ml / IFN-gamma 10 U/ml 15 min): dose-dependent manner; inhibition of LPS-induced phosphorylation of p44/42 MAP kinase ([12]; 30 μM, LPS 10 ng/ml 15 min): inhibited; Percent Inhibition of Enzyme Activity, PDE4 ([13]; 1 μM): 85%; Percent Inhibition of Enzyme Activity, PDE4 ([13]; 10 μM): 98%; Percent Inhibition of Enzyme Activity, PDE4 ([13]; 30 μM): 102%; IC50 ([13]; PDE4 from human U-937 promonocytic cells): < 1 µM; IC50 [14]: 13.6 µM
COC(=O)NCc1ccc(Oc2ccc(/C(=C\c3cc(OC)cc(OC)c3)C(=O)N(C)C)cc2)cc1 [Compound 29, (4-{4-[2-(3,5-dimethoxyphenyl)-1-dimethylcarbamoyl-vinyl]-phenoxy}-benzyl)-carbamic acid methyl ester]	106	124	120	–
COc1cc(/C=C(/C(=O)N(C)C)c2ccc(Oc3ccc(CCC(N)=O)cc3)cc2)cc(OC)c1 [Compound 31, 2-{4-[4-(2-Carbamoylethyl)-phenoxy]-phenyl}-3-(3,5-dimethoxyphenyl)-N,N-dimethylacrylamide]	107	119	161	inhibition of LPS-induced TNF-alpha production in mice [15]: significantly inhibited; hind limb histology ([16]; high dose 100 mg/kg oral twice daily for 14 days): reduction in incidence and severity of pannus formation, inflammation cell infiltration and bone/cartilage damage; arthritis clinical score (severity) compared with vehicle controls ([16]; high dose 100 mg/kg oral twice daily for 14 days, about same extent as dexamethasone): prevented the increase in severity; hind limb histology [16, 18]: marked chronic inflammation of synovium with pannus formation and destruction of bone and cartilage; arthritis clinical score (severity) compared with vehicle controls [16, 18]: no apparent effect
COc1cc(/C=C(/C(=O)N(C)C)c2ccc(Oc3ccc(CCC(=O)N4CCOCC4)cc3)cc2)cc(OC)c1 [Compound 40, 3-(3,5-Dimethoxyphenyl)-N,N-dimethyl-2-{4-[4-(3-morpholin-4-yl-3-oxopropyl)-phenoxy]phenyl}-acrylamide]	126	117	126	–
COc1cc(/C=C(/C(=O)N2CCCCC2)c2ccc(Oc3ccc(CCC(=O)NC(N)=O)cc3)cc2)cc(OC)c1 [Compound 51, [3-(4-{4-[2-(3,5-dimethoxyphenyl)-1-(piperidine-1-carbonyl)-vinyl]-phenoxy}-phenyl)-propionyl]-urea]	93	107	136	Cell viability [17]: * (Cell viability <70%)
CC(=O)NC(=O)CCc1ccc(Oc2ccc(/C(=C\c3ccc(F)cc3)C(=O)N(C)C)cc2)cc1 [Compound 56, 2-{4-[4-(3-acetylamino-3-oxopropyl)-phenoxy]-phenyl}-3-(4-fluorophenyl)-N,N-dimethylacrylamide]	83	100	126	–
COc1cc(/C=C(/C(=O)Nc2ccncc2)c2ccc(Oc3ccc(CCC(=O)NC(N)=O)cc3)cc2)cc(OC)c1 [Compound 60, 3-(3,5-dimethoxyphenyl)-2-{4-[4-(3-oxo-3-ureidopropyl)-phenoxy]-phenyl}-N-pyridin-4-ylacrylamide]	93	120	229	–
COc1cc(/C=C(/C(=O)Nc2ccc(Cl)cc2)c2ccc(Oc3ccc(CCC(=O)NC(N)=O)cc3)cc2)cc(OC)c1 [Compound 61, N-(4-chlorophenyl)-3-(3,5-dimethoxyphenyl)-2-{4-[4-(3-oxo-3-ureidopropyl)-phenoxy]-phenyl}-acrylamide]	93	120	229	–
COc1cc(/C=C(/C(=O)N(C)C)c2ccc(Oc3ccc(CCC(=O)NCC(=O)N4CCOCC4)cc3)cc2)cc(OC)c1 [Compound 63, 3-(3,5-Dimethoxyphenyl)-N,N-dimethyl-2-(4-{4-[2-(2-morpholin-4-yl-2-oxoethylcarbamoyl)-ethyl]-phenoxy}-phenyl)-acrylamide]	107	112	139	–
COc1cc(/C=C(/C(=O)N(C)C)c2ccc(Oc3ccc(CCC(=O)N4CCN(C)CC4)cc3)cc2)cc(OC)c1 [Compound 64, 3-(3,5-dimethoxyphenyl)-N,N-dimethyl-2-(4-{4-[3-(4-methylpiperazin-1-yl)-3-oxopropyl]-phenoxy}-phenyl)-acrylamide]	108	113	127	–
CN(C)C(=O)/C(=C/c1cccnc1)c1ccc(Oc2ccc(CCC(N)=O)cc2)cc1 [Compound 77, 2-{4-[4-(2-carbamoyl-ethyl)-phenoxy]-phenyl}-N,N-dimethyl-3-pyridin-3-yl-acrylamide]	–	–	–	inhibition of LPS-induced TNF-alpha production in mice [15]: significantly inhibited
